What was measured:
Assay in all cases: KinaseProfiler off-target kinase profiling
Assay type in all cases: biochemical
Settings in all cases: 10 μM, ATP near Km
AKT3 = molecular target: T1, AKT3 (Homo sapiens, UniProt Q9Y243)
T1 construct: purchased Millipore, Inc. (KinaseProfiler service)
In short: (§1)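 With ATP kept near each kinase's Km, a 10 μM dose of compound was tested twice. The reported number is percent of control, averaged across the pair.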

ALK4 = molecular target: T2, ALK4 (Homo sapiens, UniProt P36896)
T2 construct: purchased Millipore, Inc. (KinaseProfiler service)
T2 sequence (P36896 24-505): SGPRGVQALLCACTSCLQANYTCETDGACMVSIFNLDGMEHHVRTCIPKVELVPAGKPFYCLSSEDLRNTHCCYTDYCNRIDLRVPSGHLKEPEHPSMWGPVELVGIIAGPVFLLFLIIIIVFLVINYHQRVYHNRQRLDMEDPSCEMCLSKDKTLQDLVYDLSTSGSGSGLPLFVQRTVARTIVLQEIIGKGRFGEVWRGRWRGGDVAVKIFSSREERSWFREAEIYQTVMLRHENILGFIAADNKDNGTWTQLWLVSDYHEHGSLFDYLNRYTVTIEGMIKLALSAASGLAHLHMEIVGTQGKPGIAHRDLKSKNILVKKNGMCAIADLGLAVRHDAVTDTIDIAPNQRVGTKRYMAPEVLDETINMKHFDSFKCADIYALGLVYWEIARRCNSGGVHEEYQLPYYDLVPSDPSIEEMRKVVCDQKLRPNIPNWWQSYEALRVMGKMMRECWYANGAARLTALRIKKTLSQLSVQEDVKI
In short: as §1

AURKA = molecular target: T3, AURKA (Homo sapiens, UniProt O14965)
T3 construct: purchased Millipore, Inc. (KinaseProfiler service)
In short: as §1

BLK_m = molecular target: T4, BLK_m (Mus musculus, UniProt P16277)
T4 construct: purchased Millipore, Inc. (KinaseProfiler service)
In short: as §1

CAMK1d = molecular target: T5, CAMK1d (Homo sapiens, UniProt Q8IU85)
T5 construct: purchased Millipore, Inc. (KinaseProfiler service)
T5 sequence (Q8IU85 whole entry): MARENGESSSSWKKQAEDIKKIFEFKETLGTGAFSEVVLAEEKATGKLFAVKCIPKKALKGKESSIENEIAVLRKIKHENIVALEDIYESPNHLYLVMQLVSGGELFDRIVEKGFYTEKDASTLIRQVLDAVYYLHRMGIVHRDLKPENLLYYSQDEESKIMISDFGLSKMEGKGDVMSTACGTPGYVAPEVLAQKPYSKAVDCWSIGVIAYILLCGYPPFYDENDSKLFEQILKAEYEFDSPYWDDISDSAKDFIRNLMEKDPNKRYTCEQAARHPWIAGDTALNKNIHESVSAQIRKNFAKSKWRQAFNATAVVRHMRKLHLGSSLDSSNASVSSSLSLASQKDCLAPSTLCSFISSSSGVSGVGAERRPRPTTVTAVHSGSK
In short: as §1

CDK2/cyclinE = molecular target: T6, CDK2/cyclinE (Homo sapiens, UniProt P24941)
T6 construct: purchased Millipore, Inc. (KinaseProfiler service)
In short: as §1

CDK9/cyclinT1 = molecular target: T7, CDK9/cyclinT1 (Homo sapiens, UniProt P50750)
T7 construct: purchased Millipore, Inc. (KinaseProfiler service)
In short: as §1

CK1gamma1 = molecular target: T8, CK1gamma1 (Homo sapiens, UniProt Q9HCP0)
T8 construct: purchased Millipore, Inc. (KinaseProfiler service)
In short: as §1

CLK3 = molecular target: T9, CLK3 (Homo sapiens, UniProt P49761)
T9 construct: purchased Millipore, Inc. (KinaseProfiler service)
T9 sequence (P49761 whole entry): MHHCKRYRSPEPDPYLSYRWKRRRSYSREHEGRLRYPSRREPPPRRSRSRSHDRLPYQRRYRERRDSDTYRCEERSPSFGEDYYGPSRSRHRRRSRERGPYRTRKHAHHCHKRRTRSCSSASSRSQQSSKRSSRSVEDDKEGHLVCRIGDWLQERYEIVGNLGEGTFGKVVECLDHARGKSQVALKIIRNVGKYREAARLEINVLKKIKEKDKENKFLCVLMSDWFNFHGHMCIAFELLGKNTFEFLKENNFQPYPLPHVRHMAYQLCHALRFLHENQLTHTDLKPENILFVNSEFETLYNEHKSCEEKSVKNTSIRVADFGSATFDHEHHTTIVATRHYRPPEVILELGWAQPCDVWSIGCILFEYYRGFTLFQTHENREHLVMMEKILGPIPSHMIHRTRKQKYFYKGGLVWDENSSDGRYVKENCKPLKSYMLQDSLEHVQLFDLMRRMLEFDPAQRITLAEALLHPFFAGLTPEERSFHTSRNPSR
In short: as §1

DAPK1 = molecular target: T10, DAPK1 (Homo sapiens, UniProt P53355)
T10 construct: purchased Millipore, Inc. (KinaseProfiler service)
In short: as §1

DYRK2 = molecular target: T11, DYRK2 (Homo sapiens, UniProt Q92630)
T11 construct: purchased Millipore, Inc. (KinaseProfiler service)
In short: as §1

EphB1 = molecular target: T12, EphB1 (Homo sapiens, UniProt P54762)
T12 construct: purchased Millipore, Inc. (KinaseProfiler service)
In short: as §1

FAK2 = molecular target: T13, FAK2 (Homo sapiens, UniProt Q14289)
T13 construct: purchased Millipore, Inc. (KinaseProfiler service)
In short: as §1

FGFR1 = molecular target: T14, FGFR1 (Homo sapiens, UniProt P11362)
T14 construct: purchased Millipore, Inc. (KinaseProfiler service)
In short: as §1

Fgr = molecular target: T15, Fgr (Homo sapiens, UniProt P09769)
T15 construct: purchased Millipore, Inc. (KinaseProfiler service)
T15 sequence (P09769 whole entry): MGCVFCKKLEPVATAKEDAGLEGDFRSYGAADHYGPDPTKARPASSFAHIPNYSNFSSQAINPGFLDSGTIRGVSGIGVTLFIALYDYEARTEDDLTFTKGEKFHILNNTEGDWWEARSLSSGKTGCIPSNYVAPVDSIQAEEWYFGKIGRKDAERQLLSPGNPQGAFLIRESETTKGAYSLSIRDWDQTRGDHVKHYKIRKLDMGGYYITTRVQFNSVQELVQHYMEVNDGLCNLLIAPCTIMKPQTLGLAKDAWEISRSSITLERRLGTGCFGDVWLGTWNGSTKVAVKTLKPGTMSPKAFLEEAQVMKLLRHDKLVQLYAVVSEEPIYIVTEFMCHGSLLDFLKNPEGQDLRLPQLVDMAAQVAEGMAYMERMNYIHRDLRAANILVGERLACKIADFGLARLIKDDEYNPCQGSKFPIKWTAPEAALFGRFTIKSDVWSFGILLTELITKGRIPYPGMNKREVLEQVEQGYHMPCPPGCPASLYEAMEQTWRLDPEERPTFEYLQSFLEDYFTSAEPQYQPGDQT
In short: as §1

Flt4 = molecular target: T16, Flt4 (Homo sapiens, UniProt P35916)
T16 construct: purchased Millipore, Inc. (KinaseProfiler service)
In short: as §1

Fyn = molecular target: T17, Fyn (Homo sapiens, UniProt P06241)
T17 construct: purchased Millipore, Inc. (KinaseProfiler service)
In short: as §1

GRK7 = molecular target: T18, GRK7 (Homo sapiens, UniProt Q8WTQ7)
T18 construct: purchased Millipore, Inc. (KinaseProfiler service)
In short: as §1

Hck = molecular target: T19, Hck (Homo sapiens, UniProt P08631)
T19 construct: purchased Millipore, Inc. (KinaseProfiler service)
T19 sequence (P08631 whole entry): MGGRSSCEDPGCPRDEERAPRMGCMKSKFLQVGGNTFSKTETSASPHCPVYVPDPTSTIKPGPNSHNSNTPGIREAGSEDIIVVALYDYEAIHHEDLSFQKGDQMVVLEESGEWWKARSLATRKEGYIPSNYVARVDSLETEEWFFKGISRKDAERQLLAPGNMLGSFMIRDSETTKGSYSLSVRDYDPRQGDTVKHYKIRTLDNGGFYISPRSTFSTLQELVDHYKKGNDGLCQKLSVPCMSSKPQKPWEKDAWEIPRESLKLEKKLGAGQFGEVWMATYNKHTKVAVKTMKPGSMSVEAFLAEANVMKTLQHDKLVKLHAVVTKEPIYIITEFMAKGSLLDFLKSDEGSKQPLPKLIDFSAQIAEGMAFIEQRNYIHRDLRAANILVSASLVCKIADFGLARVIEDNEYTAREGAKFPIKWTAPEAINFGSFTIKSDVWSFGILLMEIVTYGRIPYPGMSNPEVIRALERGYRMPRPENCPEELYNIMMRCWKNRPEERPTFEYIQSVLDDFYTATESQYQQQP
In short: as §1

IKKbeta = molecular target: T20, IKKbeta (Homo sapiens, UniProt O14920)
T20 construct: purchased Millipore, Inc. (KinaseProfiler service)
In short: as §1

IR Activated = molecular target: T21, IR Activated (Homo sapiens, UniProt P06213)
T21 construct: purchased Millipore, Inc. (KinaseProfiler service)
In short: as §1

IRAK1 = molecular target: T22, IRAK1 (Homo sapiens, UniProt P51617)
T22 construct: purchased Millipore, Inc. (KinaseProfiler service)
In short: as §1

JAK3 = molecular target: T23, JAK3 (Homo sapiens, UniProt P52333)
T23 construct: purchased Millipore, Inc. (KinaseProfiler service)
In short: as §1

KIT = molecular target: T24, KIT (Homo sapiens, UniProt P10721)
T24 construct: purchased Millipore, Inc. (KinaseProfiler service)
In short: as §1

LIMK1 = molecular target: T25, LIMK1 (Homo sapiens, UniProt P53667)
T25 construct: purchased Millipore, Inc. (KinaseProfiler service)
In short: as §1

Lck = molecular target: T26, Lck (Homo sapiens, UniProt P06239)
T26 construct: purchased Millipore, Inc. (KinaseProfiler service)
T26 sequence (P06239 whole entry): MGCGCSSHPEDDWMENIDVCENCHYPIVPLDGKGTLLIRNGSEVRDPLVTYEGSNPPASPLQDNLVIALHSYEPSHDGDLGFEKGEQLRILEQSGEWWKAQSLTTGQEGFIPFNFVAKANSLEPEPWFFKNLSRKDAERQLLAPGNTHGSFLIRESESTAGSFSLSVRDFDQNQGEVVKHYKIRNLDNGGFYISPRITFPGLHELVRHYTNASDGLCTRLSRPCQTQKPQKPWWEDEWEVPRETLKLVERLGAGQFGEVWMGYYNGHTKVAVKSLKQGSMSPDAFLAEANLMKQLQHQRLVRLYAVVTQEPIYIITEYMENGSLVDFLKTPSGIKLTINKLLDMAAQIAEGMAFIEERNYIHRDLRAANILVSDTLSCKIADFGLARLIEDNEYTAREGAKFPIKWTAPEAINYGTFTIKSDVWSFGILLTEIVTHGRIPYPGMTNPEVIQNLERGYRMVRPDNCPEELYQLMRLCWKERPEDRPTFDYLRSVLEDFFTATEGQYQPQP
In short: as §1

Lyn = molecular target: T27, Lyn (Homo sapiens, UniProt P07948)
T27 construct: purchased Millipore, Inc. (KinaseProfiler service)
T27 sequence (P07948 whole entry): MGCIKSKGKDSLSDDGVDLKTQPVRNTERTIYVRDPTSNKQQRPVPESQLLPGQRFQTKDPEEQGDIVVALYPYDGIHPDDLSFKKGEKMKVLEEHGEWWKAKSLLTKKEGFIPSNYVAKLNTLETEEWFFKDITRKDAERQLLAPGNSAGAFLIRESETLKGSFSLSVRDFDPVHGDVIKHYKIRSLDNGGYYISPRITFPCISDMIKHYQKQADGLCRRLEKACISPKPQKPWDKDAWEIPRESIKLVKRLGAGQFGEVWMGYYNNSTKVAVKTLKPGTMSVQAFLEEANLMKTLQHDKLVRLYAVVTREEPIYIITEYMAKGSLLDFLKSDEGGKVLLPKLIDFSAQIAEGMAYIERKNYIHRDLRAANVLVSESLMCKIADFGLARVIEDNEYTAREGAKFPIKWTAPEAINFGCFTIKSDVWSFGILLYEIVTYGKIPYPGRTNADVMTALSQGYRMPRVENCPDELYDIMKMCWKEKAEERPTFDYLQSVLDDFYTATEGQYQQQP
In short: as §1

MAPKAP-K2 = molecular target: T28, MAPKAP-K2 (Homo sapiens, UniProt P49137)
T28 construct: purchased Millipore, Inc. (KinaseProfiler service)
In short: as §1

MSK2 = molecular target: T29, MSK2 (Homo sapiens, UniProt O75676)
T29 construct: purchased Millipore, Inc. (KinaseProfiler service)
In short: as §1

MST3 = molecular target: T30, MST3 (Homo sapiens, UniProt Q9Y6E0)
T30 construct: purchased Millipore, Inc. (KinaseProfiler service)
In short: as §1

PKAC-alpha = molecular target: T31, PKAC-alpha (Homo sapiens, UniProt P17612)
T31 construct: purchased Millipore, Inc. (KinaseProfiler service)
In short: as §1

PKCalpha = molecular target: T32, PKCalpha (Homo sapiens, UniProt P17252)
T32 construct: purchased Millipore, Inc. (KinaseProfiler service)
In short: as §1

PKCtheta = molecular target: T33, PKCtheta (Homo sapiens, UniProt Q04759)
T33 construct: purchased Millipore, Inc. (KinaseProfiler service)
In short: as §1

PKD1 = molecular target: T34, PKD1 (Homo sapiens, UniProt Q15139)
T34 construct: purchased Millipore, Inc. (KinaseProfiler service)
In short: as §1

PRKG1beta = molecular target: T35, PRKG1beta (Homo sapiens, UniProt Q13976)
T35 construct: purchased Millipore, Inc. (KinaseProfiler service)
T35 sequence (Q13976 1-686 isoform Q13976-2): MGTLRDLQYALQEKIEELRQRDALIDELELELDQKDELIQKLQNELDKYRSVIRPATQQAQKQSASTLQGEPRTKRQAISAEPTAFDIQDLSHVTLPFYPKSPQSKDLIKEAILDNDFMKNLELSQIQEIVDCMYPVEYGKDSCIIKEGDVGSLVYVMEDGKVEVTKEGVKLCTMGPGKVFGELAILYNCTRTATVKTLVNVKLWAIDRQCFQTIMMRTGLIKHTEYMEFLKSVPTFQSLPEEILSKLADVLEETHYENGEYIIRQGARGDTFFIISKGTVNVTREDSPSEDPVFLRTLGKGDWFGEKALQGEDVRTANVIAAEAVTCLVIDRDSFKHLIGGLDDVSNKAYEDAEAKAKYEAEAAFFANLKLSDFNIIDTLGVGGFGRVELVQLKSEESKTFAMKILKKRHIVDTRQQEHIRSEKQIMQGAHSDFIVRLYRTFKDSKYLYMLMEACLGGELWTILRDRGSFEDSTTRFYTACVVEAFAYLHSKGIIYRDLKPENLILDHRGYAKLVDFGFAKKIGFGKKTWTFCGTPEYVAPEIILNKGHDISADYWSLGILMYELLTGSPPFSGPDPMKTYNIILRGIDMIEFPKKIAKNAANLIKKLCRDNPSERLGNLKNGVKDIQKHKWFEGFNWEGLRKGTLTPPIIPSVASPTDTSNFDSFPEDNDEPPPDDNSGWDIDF
In short: as §1

Pim-2 = molecular target: T36, Pim-2 (Homo sapiens, UniProt Q9P1W9)
T36 construct: purchased Millipore, Inc. (KinaseProfiler service)
In short: as §1

Pim-3 = molecular target: T37, Pim-3 (Homo sapiens, UniProt Q86V86)
T37 construct: purchased Millipore, Inc. (KinaseProfiler service)
In short: as §1

PrKX = molecular target: T38, PrKX (Homo sapiens, UniProt P51817)
T38 construct: purchased Millipore, Inc. (KinaseProfiler service)
In short: as §1

Ret = molecular target: T39, Ret (Homo sapiens, UniProt P07949)
T39 construct: purchased Millipore, Inc. (KinaseProfiler service)
In short: as §1

Rse = molecular target: T40, Rse (Homo sapiens, UniProt Q06418)
T40 construct: purchased Millipore, Inc. (KinaseProfiler service)
In short: as §1

TLK2 = molecular target: T41, TLK2 (Homo sapiens, UniProt Q86UE8)
T41 construct: purchased Millipore, Inc. (KinaseProfiler service)
In short: as §1

COCCN1C[C@@H](NC(=O)Nc2sc(C(C)C)nc2-c2ccccc2)[C@H](c2ccccc2)C1 [Example 48, 1-(2-isopropyl-4-phenylthiazol-5-yl)-3-((3S,4R)-1-(2-methoxyethyl)-4-phenylpyrrolidin-3-yl)urea]
Avg POC (AKT3): 106.5% of control
Avg POC (ALK4): 88.5% of control
Avg POC (AURKA): 133% of control
Avg POC (BLK_m): 107% of control
Avg POC (CAMK1d): 105% of control
Avg POC (CDK2/cyclinE): 113% of control
Avg POC (CDK9/cyclinT1): 111.5% of control
Avg POC (CK1gamma1): 116% of control
Avg POC (CLK3): 101.5% of control
Avg POC (DAPK1): 114.5% of control
Avg POC (DYRK2): 103.5% of control
Avg POC (EphB1): 107.5% of control
Avg POC (FAK2): 107.5% of control
Avg POC (FGFR1): 98% of control
Avg POC (Fgr): 111.5% of control
Avg POC (Flt4): 103% of control
Avg POC (Fyn): 108.5% of control
Avg POC (GRK7): 122% of control
Avg POC (Hck): 115.5% of control
Avg POC (IKKbeta): 96% of control
Avg POC (IR Activated): 111.5% of control
Avg POC (IRAK1): 100.5% of control
Avg POC (JAK3): 102.5% of control
Avg POC (KIT): 100% of control
Avg POC (LIMK1): 104% of control
Avg POC (Lck): 102% of control
Avg POC (Lyn): 108.5% of control
Avg POC (MAPKAP-K2): 109.5% of control
Avg POC (MSK2): 103.5% of control
Avg POC (MST3): 97% of control
Avg POC (PKAC-alpha): 98.5% of control
Avg POC (PKCalpha): 106.5% of control
Avg POC (PKCtheta): 108.5% of control
Avg POC (PKD1): 94.5% of control
Avg POC (PRKG1beta): 105% of control
Avg POC (Pim-2): 104% of control
Avg POC (Pim-3): 140.5% of control
Avg POC (PrKX): 122% of control
Avg POC (Ret): 125.5% of control
Avg POC (Rse): 117% of control
Avg POC (TLK2): 98% of control

From US9828360B2 (Array BioPharma Inc., priority 2012, dated 2017)
